In patent US5348968A, “Indole, indazole and benzisoxazole compounds” (Adir et Compagnie, priority 1993, dated 1994) one finds EC50 data, which are given here for one molecule.

For test [1], the target named is T1, 5-HT1 receptor (Canis lupus familiaris, UniProt P79250).
T1 construct: The venae saphenae are rapidly removed and cut into rings; from tissue; host or cells: dog saphenous vein rings
The experiment in a line: Contraction of the vena saphena isolated from dogs. More on the design: species or system dog. The settings on record: % of maximum effect induced by KCl, after phenoxybenzamine, cumulative doses 10^-9 to 10^-4 M, read-out: 50% effective concentration (EC50). On the procedure: (§1) Contraction of the vena saphena
(§2) Experiments are carried out on venae saphenae of dogs (10-25kg) or rabbits (2-3 kg) anesthetized with pentobarbital (30 mg/kg i.v.). The venae saphenae are rapidly removed and cut into rings. These rings are mounted between two hooks in tanks thermostatically controlled at 37° C. containing physiological solution (composition in mM: NaCl118.3; KCl 4.7; CaCl2 2.5; MgSO4 1.2; KH2 PO4 1.2; NaHCO3 25.0; Ca-EDTA 0.026 and glucose 11.1). A mixture of 95% O2 /5% CO2 is bubbled through the physiological solution. The lower hook constitutes the fixed point whereas the upper hook is connected to an isometric force sensor. The tissues are put under a base tension of 1.5 grams (dogs) and 1 gram (rabbits). The pharmacological substances studied are prepared immediately before use; they are dissolved in water or in dimethyl sulfoxide.
(§3) After mounting, the preparations are left standing for 60 minutes, rinsings being carried out every 30 minutes. The organ is then brought into contact with phenoxybenzamine (5×10^-8 M) for 20 minutes. This agent is removed by several successive washings over 45 minutes. After readjusting the base tension, a contraction is caused by KCl (100 mM).

For test [2], the target named is 5-HT1 receptor. In words: Contraction of the vena saphena isolated from rabbits. On the set-up: species or system rabbit. The settings on record: % of maximum effect induced by KCl, after phenoxybenzamine, cumulative doses 10^-9 to 10^-4 M, read-out: 50% effective concentration (EC50). On the procedure: as §1, §2, §3

Where a name gives a salt, the structure may show the parent alone.

T1 sequence (P79250 whole entry): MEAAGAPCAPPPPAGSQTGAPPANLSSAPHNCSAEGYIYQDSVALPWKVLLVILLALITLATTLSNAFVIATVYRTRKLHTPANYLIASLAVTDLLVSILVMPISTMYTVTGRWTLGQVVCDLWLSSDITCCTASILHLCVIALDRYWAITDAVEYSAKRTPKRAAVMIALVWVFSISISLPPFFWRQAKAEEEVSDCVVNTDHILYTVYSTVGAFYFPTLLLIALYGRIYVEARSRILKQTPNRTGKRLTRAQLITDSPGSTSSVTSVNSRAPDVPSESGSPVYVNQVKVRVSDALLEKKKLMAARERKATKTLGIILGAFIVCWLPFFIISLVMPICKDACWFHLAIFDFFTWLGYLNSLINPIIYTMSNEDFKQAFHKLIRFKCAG

With `CCCN1CCC(Cc2c[nH]c3ccc(C(N)=O)cc23)C1` (centres unmarked) [Example 17, 3-[(1-Propylpyrrolidin-3-yl)methyl]-5-aminocarbonylindole, oxalate], the EC50 amounted to 340 nM on 5-HT1 receptor [1] and 410 nM on 5-HT1 receptor [2].
